For 13 compounds, IC50 results are on record in patent US7605165B2, “Phenylalanine derivatives” (Ajinomoto Co., Inc., priority 2002, dated 2009).

The target in assay [1] is T1, integrin α4β7 (Homo sapiens, UniProt P13612+P26010).
T1 construct: lymphoma cell strain RPMI-8866 of human B cells, known to express integrin α4β7; endogenous in cells; host or cells: RPMI-8866, human B-cell lymphoma line
T1 sequence (P13612 34-1032): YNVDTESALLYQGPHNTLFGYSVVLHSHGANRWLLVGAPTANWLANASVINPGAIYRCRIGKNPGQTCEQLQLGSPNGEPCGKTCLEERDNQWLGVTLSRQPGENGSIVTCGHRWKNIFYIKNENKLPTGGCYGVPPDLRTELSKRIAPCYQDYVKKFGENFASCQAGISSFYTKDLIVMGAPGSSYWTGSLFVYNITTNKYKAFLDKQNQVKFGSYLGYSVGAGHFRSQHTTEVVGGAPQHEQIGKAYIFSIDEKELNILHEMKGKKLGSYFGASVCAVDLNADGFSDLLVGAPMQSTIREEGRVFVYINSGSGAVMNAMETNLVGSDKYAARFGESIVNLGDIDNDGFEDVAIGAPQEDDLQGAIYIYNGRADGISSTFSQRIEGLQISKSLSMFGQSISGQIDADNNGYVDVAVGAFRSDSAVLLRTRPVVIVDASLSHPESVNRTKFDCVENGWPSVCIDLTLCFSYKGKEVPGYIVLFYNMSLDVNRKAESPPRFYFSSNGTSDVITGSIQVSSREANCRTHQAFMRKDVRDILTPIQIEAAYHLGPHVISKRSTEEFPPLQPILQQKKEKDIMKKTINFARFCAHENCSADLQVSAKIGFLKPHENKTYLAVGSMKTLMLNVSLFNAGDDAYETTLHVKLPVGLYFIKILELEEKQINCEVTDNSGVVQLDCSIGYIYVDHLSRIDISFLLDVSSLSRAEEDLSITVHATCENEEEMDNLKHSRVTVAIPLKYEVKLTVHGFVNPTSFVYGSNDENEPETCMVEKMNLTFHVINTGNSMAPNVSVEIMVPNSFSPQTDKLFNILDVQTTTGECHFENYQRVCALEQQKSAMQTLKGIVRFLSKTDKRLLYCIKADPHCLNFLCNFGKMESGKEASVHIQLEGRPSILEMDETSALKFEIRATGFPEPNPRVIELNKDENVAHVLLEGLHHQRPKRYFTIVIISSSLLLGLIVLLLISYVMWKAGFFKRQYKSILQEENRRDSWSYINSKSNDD
T1 sequence (P26010 20-798): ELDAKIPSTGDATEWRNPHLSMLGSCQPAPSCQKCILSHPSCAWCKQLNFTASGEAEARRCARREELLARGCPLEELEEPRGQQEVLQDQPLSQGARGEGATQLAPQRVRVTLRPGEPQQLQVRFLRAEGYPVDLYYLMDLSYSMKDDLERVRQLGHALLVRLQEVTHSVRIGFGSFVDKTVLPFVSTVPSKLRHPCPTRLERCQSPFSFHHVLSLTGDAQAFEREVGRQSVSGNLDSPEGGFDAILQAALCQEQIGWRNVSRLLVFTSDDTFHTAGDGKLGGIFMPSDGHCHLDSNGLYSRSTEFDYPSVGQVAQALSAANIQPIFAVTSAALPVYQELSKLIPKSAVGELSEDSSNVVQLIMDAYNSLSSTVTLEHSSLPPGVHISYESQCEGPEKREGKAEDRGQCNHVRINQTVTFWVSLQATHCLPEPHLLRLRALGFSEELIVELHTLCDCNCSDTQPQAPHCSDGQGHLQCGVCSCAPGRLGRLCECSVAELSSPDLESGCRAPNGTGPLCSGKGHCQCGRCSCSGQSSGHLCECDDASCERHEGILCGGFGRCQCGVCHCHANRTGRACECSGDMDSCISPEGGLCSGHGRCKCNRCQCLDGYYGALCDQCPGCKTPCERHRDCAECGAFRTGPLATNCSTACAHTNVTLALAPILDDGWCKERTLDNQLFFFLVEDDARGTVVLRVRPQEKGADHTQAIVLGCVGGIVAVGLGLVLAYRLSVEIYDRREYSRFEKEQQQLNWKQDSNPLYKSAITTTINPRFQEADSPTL
Briefly: Assessment of VCAM-1/α4β7 binding antagonistic activity (RPMI-8866 cells binding to VCAM-1). As to conditions: RPMI-8866 human B lymphoma cells binding to recombinant human VCAM-1, binding buffer with 4 mM MnCl2; read-out: integrin VCAM/α4 binding antagonistic activity (IC50) α4β7. Type of assay: cell-based. How it is done: The capacity of a test substance antagonistic to the binding of lymphoma cell strain RPMI-8866 of human B cells, known to express integrin α4β7, to VCAM-1 was determined.
(§1) 100 μl/well of a solution (500 ng/ml) of recombinant human VCAM-1 (R & D systems) solution diluted with buffer A (0.1 M NaHCO3, pH 9.6) was added to a micro titer plate having 96 wells (Nunc Maxisorp). After the incubation at 4° C. overnight, unbound VCAM-1 was removed by washing once with PBS. After completion of the washing, a buffer (buffer B) obtained by diluting Block Ace (Dainippon Pharmaceutical Co., Ltd.) with PBS to 1/4 concentration was added in an amount of 150 μl/well. After the incubation at room temperature for 1 hour, buffer B was removed and the plate was washed with PBS once.
RPMI-8866 cells were washed with DMEM twice and incubated in Dulbecco modified Eagle medium containing 10 μg/ml of Calcein-AM (Wako Pure Chemical Industries, Ltd.) (SIGMA, hereinafter referred to as “DMEM”) in dark place at 37° C. for 30 minutes to label with fluorescence. The cells were again suspended in a binding buffer (20 mM HEPES, DMEM containing 0.1% BSA) containing 4 mM of MnCl2.
(§2) 50 μl of a test substance of various concentrations obtained by the dilution with the binding buffer was added to the plate. Immediately thereafter, 50 μl (final volume: 100 μl/well) of the fluorescent RPMI-8866 cells (4×10^6 cells/ml) were added thereto, and they were incubated in dark place at room temperature for 30 minutes. After the shaking on a plate shaker (IKA MTS-4) at 800 rpm for 30 seconds, the solution was immediately removed to remove the unbound cells. The fluorescence quantity of the bound cells remaining in the wells was determined with a fluorescent plate reader (Wallac 1420 ARVO multi-label counter) (filter excitation wave length: 485 nm, emission wave length: 535 nm). The fluorescent strength thus obtained is proportional to the number of RPMI-8866 cells bound to VCAM-1 and remaining on the plate. The binding rate of each test material in various concentrations was determined while the fluorescent strength of the test material-free well was determined to be 100%.

Assay [2] addresses T2, integrin α4β1 (Homo sapiens, UniProt P05556+P13612).
T2 construct: cell strain Jurkat (ATCC TIB-152) of human T cells, known to express integrin α4β1; endogenous in cells; host or cells: Jurkat (ATCC TIB-152), human T cells
Briefly: Assessment of VCAM-1/α4β1 binding antagonist activity (Jurkat cells binding to VCAM-1). Type of assay: cell-based. As to conditions: Jurkat human T cells binding to recombinant human VCAM-1; read-out: integrin VCAM/α4 binding antagonistic activity (IC50) α4β1. How it is done:
The capacity of a test substance antagonistic to the binding of cell strain Jurkat (ATCC TIB-152) of human T cells, known to express integrin α4β1, to VCAM-1 was determined.
as §1
Jurkat cells were washed with Dulbecco modified Eagle medium (SIGMA, hereinafter referred to as “DMEM”) twice and then incubated in DMEM containing 10 μg/ml of Calcein-AM (Wako Pure Chemical Industries, Ltd.) at 37° C. in dark place for 30 minutes to label with fluorescence. The cells were again suspended in a binding buffer (20 mM HEPES, DMEM containing 0.1% BSA).
as §2, with “Jurkat” for “RPMI-8866”

T2 sequence (P05556 21-798, one chain of several): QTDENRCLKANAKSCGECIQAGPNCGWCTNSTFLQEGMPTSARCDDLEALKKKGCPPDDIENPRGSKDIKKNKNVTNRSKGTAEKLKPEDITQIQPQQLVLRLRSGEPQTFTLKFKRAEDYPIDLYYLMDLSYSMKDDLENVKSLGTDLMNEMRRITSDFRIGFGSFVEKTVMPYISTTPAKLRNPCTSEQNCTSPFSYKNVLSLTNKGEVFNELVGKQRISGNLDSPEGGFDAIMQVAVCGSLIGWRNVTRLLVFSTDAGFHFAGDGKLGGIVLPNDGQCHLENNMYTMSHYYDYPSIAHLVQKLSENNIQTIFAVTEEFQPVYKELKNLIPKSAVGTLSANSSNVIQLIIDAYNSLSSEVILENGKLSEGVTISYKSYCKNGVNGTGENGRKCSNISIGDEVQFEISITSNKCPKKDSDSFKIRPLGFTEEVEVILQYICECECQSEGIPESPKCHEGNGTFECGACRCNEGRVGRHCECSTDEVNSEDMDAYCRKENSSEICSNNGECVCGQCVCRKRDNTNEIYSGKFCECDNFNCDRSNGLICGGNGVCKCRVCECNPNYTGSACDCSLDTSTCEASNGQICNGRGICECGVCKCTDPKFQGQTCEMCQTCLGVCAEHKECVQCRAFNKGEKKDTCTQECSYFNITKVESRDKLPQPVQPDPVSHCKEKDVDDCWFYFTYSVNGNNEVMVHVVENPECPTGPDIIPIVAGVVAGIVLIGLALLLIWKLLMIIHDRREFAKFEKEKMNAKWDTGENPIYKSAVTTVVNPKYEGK

In the case of `Cn1c(=O)n(-c2ccc(C[C@H](NC(=O)c3c(Cl)cccc3Cl)C(=O)O)cc2)c(=O)c2cc(N3CCCC3)ccc21` [compound 110], the IC50 in assay [1] worked out at 4.1 nM; in assay [2], 55 nM.
For the compound `O=C(N[C@@H](Cc1ccc(-n2c(=O)c3ccccc3n(Cc3ccc(Cl)c(Cl)c3)c2=O)cc1)C(=O)O)c1c(Cl)cccc1Cl` [compound 115], the figures for the IC50 in assay [1] and in assay [2] were 36 nM and 760 nM, respectively.
Regarding `O=C(N[C@@H](Cc1ccc(-n2c(=O)c3ccccc3n(Cc3ccc(Cl)cc3Cl)c2=O)cc1)C(=O)O)c1c(Cl)cccc1Cl` [compound 116], the results for the IC50 in assay [1] and in assay [2] were 35 nM and 450 nM, respectively.
`Cc1ccc(Cn2c(=O)n(-c3ccc(C[C@H](NC(=O)c4c(Cl)cccc4Cl)C(=O)O)cc3)c(=O)c3ccccc32)cc1` [compound 118]: the IC50 in assay [1] is 16 nM; in assay [2], 385 nM.
As for `O=C(N[C@@H](Cc1ccc(-n2c(=O)c3ccccc3n(Cc3ccccc3Cl)c2=O)cc1)C(=O)O)c1c(Cl)cccc1Cl` [compound 119], the IC50 is 21 nM in assay [1] and 440 nM in assay [2].
`Cc1ccccc1Cn1c(=O)n(-c2ccc(C[C@H](NC(=O)c3c(Cl)cccc3Cl)C(=O)O)cc2)c(=O)c2ccccc21` [compound 120]: the values for the IC50 in assay [1] and in assay [2] were 24 nM and 500 nM, respectively.
As for `O=C(N[C@@H](Cc1ccc(-n2c(=O)c3ccccc3n(Cc3c(F)cccc3Cl)c2=O)cc1)C(=O)O)c1c(Cl)cccc1Cl` [compound 121], the results for the IC50 in assay [1] and in assay [2] were 14 nM and 109 nM, respectively.
Consider `O=C(N[C@@H](Cc1ccc(-n2c(=O)c3ccccc3n(Cc3ccccc3)c2=O)cc1)C(=O)O)c1c(Cl)cccc1Cl` [compound 122], for which the figures for the IC50 in assay [1] and in assay [2] were 0.6 nM and 310 nM, respectively.
The corresponding values for `CC(C)CNc1nc2ccccc2c(=O)n1-c1ccc(C[C@H](NC(=O)c2c(Cl)cccc2Cl)C(=O)O)cc1` [compound 126] are 70 nM and 1580 nM.
For `CCN(C)c1nc2ccccc2c(=O)n1-c1ccc(C[C@H](NC(=O)c2c(Cl)cccc2Cl)C(=O)O)cc1` [compound 129] the same measures were 76.4 nM and 2020 nM.
As to `Cn1c(=O)n(-c2ccc(C[C@H](NC(=O)c3c(Cl)cccc3C(F)(F)F)C(=O)O)cc2)c(=O)c2ccccc21` [compound 164], the IC50 in assay [1] turned out to be 7.1 nM; in assay [2], 120 nM.
For `Cn1c(=O)n(-c2ccc(C[C@H](NC(=O)c3c(Cl)cccc3Br)C(=O)O)cc2)c(=O)c2ccccc21` [compound 165] the same measures were 0.6 nM and 11 nM.
Turning to `Cn1c(=O)n(-c2ccc(C[C@H](NC(=O)c3c(Cl)cncc3Cl)C(=O)O)cc2)c(=O)c2ccccc21` [compound 169], the results for the IC50 in assay [1] and in assay [2] were 0.5 nM and 6 nM, respectively.
